For 1 compound, IC50 and inhibition results are on record in ChEMBL document CHEMBL3259609, “Optimization of pancreatic lipase inhibition by Cudrania tricuspidata fruits using response surface methodology” (Bioorg Med Chem Lett, 2014).

For experiment [1], the target named is T1, Pancreatic triacylglycerol lipase (Sus scrofa, UniProt P00591).
T1 sequence (P00591 whole entry): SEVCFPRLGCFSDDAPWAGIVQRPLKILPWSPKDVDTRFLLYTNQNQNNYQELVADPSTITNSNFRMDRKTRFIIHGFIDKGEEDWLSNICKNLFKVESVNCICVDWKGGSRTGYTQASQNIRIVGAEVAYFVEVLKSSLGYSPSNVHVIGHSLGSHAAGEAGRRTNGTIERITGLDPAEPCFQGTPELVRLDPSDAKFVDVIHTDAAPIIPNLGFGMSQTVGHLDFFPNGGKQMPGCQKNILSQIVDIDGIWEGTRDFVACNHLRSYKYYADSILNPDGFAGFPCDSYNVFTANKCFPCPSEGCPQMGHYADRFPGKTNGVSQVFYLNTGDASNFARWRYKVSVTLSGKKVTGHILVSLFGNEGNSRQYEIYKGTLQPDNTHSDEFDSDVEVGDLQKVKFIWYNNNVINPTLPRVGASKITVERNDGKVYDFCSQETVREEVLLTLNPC
As to the kind of experiment: Inhibition of porcine pancreatic lipase assessed as hydrolysis of p-NPB to p-nitrophenol by microplate reader.

Experiment [2] has as its target T2, Pancreatic triacylglycerol lipase (Sus scrofa) (UniProt P00591).
T2 sequence (whole entry): T1 sequence (P00591 whole entry)
The note with it: 10 uM.
Description: Inhibition of porcine pancreatic lipase assessed as hydrolysis of p-NPB to p-nitrophenol at 10 uM by microplate reader relative to control

In general, pIC50 refers to the IC50 on a negative log10 scale, so that one unit is a factor of ten. The term inhibition denotes the drop in the measured response relative to a control, in per cent. A lower inhibition goes with a response near the control.

pIC50: −log10 of the molar value.

Turning to `CC(C)=CCc1c(O)c(CC=C(C)C)c2occ(-c3ccc(O)cc3)c(=O)c2c1O`, the negative logarithm of the IC50 (pIC50) in experiment [1] was 4.19. In addition, the inhibition in experiment [2] amounted to 72.2%.
